From patent US20040253256A1, “Biological compositions and methods for treatment of prostate cancer” (priority 2003, published 2004)
Where two headings read alike, the source gives them in different places.

Columns and labels:
[1] = tested on: human prostate cancer; settings: 31st day from tumor inoculation; 30 consecutive days; AY/NY 0.3 ml oral once per day, CTX 30 mg/kg/day s.c.
Excerpt: (§1) The animals used to generate the prostate cancer cells for the experiments were male nude mouse (obtainable from the Chinese Academy of Military Medical Sciences, Beijing, China) with an average weight of about 15 to 18 gram. Fresh prostate tumor cells (obtainable from the Cancer Institute, Chinese Academy of Medical Sciences, Beijing, China) were divided into sections of size 1-2 mm^3 and immediately stored in […] suspension after removal from the human patient.
The mouse were starved for 24 hours before the surgery. The animals were generally anaesthetized. The barbiturates was first diluted in saline and then injected at 0.3 to 0.4 ml per animal, or 30 mg per kg body weight, into the abdomen of the mice. Under sterile conditions, a 1 cm long opening in the body cavity was cut along the right rib of the mice for engraftment of the tumor. About 10^6 units of tumor cells (about 2 mg tumor pieces per ml culture medium) were transplanted. Afterwards, the opening was sutured and the mice were put back into the cage. The animals were allowed to grow for three to five weeks or when the tumor grows to about 1 to 2 cm^3 in size. […]
The mice received the biological compositions, untreated yeast cells, CTX or saline on the same day as the tumor cells were transplanted. […] The weight of the mice and the weight of the tumor were determined by standard techniques.

[2] = tested on: human prostate cancer; settings: for Number of live animals remaining in the groups after 30 days of treatment: 30 mice per group, 2CTX 45 mg/kg/day s.c.
Excerpt: as §1
The mouse were starved for 24 hours before the surgery. The animals were generally anaesthetized. The barbiturates was first diluted in saline and then injected at 0.3 to 0.4 ml per animal, or 30 mg per kg body weight, into the abdomen of the mice. Under sterile conditions, a 1 cm long opening in the body cavity was cut along the right rib of the mice for engraftment of the tumor. About 10^6 units of tumor cells (about 2 mg tumor pieces per ml culture medium) were transplanted. Afterwards, the opening was sutured and the mice were put back into the cage. The animals were allowed to grow for three to five weeks or when the tumor grows to about 1 to 2 cm^3 in size. […] The tumor was removed from a donor rat and minced aseptically in 4 ml of Hank's solution to form a cell suspension. About 10^6 units of tumor cells (about 0.2 ml cell suspension) were transplanted into a healthy batch of nude mice.
The survival time of mice after tumor injection and treatment was studied.
The biological composition comprising 10^8 cells per ml of activated and conditioned yeast cells of the strain Saccharomyces carlsbergensis Hansen strain AS2.440 was prepared by the methods described in Section 5.1 and subsections therein
The animals were prepared in a similar manner as described in Section 6.1.
The mice injected with tumor cells were kept for 2 weeks and then were divided into 4 experimental groups of ten mice per group and one control group. The four experimental groups were triplicated (i.e., using a total of 120 mice in the experimental groups). In group 2AY, the mice received 0.5 ml of the biological composition once per day. In group 2NY, the mice received 0.5 ml of the untreated yeast cells once per day. In group 2CTX, the mice were injected subcutaneously with 45 mg of cyclophosphamide (CTX) per kg body weight per day. In group 2CK1, the mice received 0.5 ml of physiological saline once per day.
The mice received the biological compositions, untreated yeast cells, CTX or saline on the same day as the tumor cells were transplanted. The mice in group 2CK2 also started receiving saline on the same day as the other four groups. The biological compositions, untreated yeast cells and saline were administered orally by a feeding tube and the CTX by subcutaneous injection for 30 consecutive days. The mice were observed over 6 months from the day of tumor inoculation and survival was recorded. The weight of the mice and the weight of the tumor were determined by standard techniques.

[3] = tested on: human prostate cancer; test: Example 6: tumor growth in nude mouse model of human prostate cancer (thiotepa comparator); assay type: in vivo; settings: 31st day from tumor inoculation; 30 consecutive days; AY/NY 0.3 ml oral once per day, TSPA 1.5 mg/kg/day i.v.
Procedure: The human prostate cancer sample was carefully selected before, during, and after surgery in order to ensure transplant occurred at the equivalent position in the mouse. The prostate cancer sample was obtained from patients who have not received any radiation, chemotherapy, or immune enhancement treatment.
(§2) The animals were generally anaesthetized.
In group TSPA, the mice were injected intravenously with 1.5 mg of thiotepa (TSPA) per kg body weight per day.

[4] = tested on: human prostate cancer; test: Example 7: survival time in nude mouse model of human prostate cancer (thiotepa comparator); assay type: in vivo; settings: for Number of live animals remaining in the groups after 30 days of treatment: 30 mice per group
Procedure: as §2
In group 2TSPA, the mice were injected intravenously with 2.2 mg of thiotepa (TSPA) per kg body weight per day.

[5] = mice that survived the 6 months observation, 2AY/2NY 0.5 ml oral daily, 2TSPA 2.2 mg/kg/day i.v., 30 days
[6] = mice that survived the 6 months observation, 2AY/2NY 0.5 ml oral daily, CTX 45 mg/kg/day s.c., 30 days

In the case of `O=P1(N(CCCl)CCCl)NCCCO1` (stereo not drawn) [CTX, cyclophosphamide], the “mean weight of mice and standard deviation” value [1] is reported as 16.7 ± 1.7 g, the “mean weight of tumor nodules and standard deviation” value [1] is reported as 3.3 ± 1.7 g and the “Number of live animals remaining in the groups after 30 days of treatment” value (“Number of live animals remaining” below) ([2]; 0 month after cessation of treatment, 2AY/2NY 0.5 ml oral daily) is reported as 30. For the same compound, the “Number of live animals remaining” value ([2]; 1 month after cessation of treatment, 2AY/2NY 0.5 ml oral daily) was 30, the “survival after six months from injection of tumor cells” value ([2]; 2NY 0.5 ml per day, 2CTX 45 mg/kg per day, 30 days) was “all died” and the “Number of live animals remaining” value ([2]; 2 months after cessation of treatment, 2AY/2NY 0.5 ml oral daily) was 30. For the same compound, the “Number of live animals remaining” value ([2]; 3 months after cessation of treatment, 2AY/2NY 0.5 ml oral daily) was 27, the “Number of live animals remaining” value ([2]; 4 months after cessation of treatment, 2AY/2NY 0.5 ml oral daily) was 22 and the “Number of live animals remaining” value ([2]; 5 months after cessation of treatment, 2AY/2NY 0.5 ml oral daily) was 17. The “Number of live animals remaining” value ([2]; 6 months after cessation of treatment, 2AY/2NY 0.5 ml oral daily) was 0.
In the case of `S=P(N1CC1)(N1CC1)N1CC1` [TSPA, thiotepa], the “mean weight of mice and standard deviation” value [3] is reported as 16.2 ± 1.7 g, the “mean weight of tumor nodules and standard deviation” value [3] is reported as 2.4 ± 1.2 mg and the “Number of live animals remaining” value ([4]; 0 month after cessation of treatment, 2AY/2NY 0.5 ml oral daily, 2TSPA 2.2 mg/kg/day i.v.) is reported as 30. The “Number of live animals remaining” value ([4]; 1 month after cessation of treatment, 2AY/2NY 0.5 ml oral daily, 2TSPA 2.2 mg/kg/day i.v.) was 30, the “survival after six months from injection of tumor cells” value ([4]; 2NY 0.5 ml per day, 2TSPA 2.2 mg/kg per day, 30 days) was “all died” and the “Number of live animals remaining” value ([4]; 2 months after cessation of treatment, 2AY/2NY 0.5 ml oral daily, 2TSPA 2.2 mg/kg/day i.v.) was 30. For the same compound, the “Number of live animals remaining” value ([4]; 3 months after cessation of treatment, 2AY/2NY 0.5 ml oral daily, 2TSPA 2.2 mg/kg/day i.v.) was 27, the “Number of live animals remaining” value ([4]; 4 months after cessation of treatment, 2AY/2NY 0.5 ml oral daily, 2TSPA 2.2 mg/kg/day i.v.) was 17 and the “Number of live animals remaining” value ([4]; 5 months after cessation of treatment, 2AY/2NY 0.5 ml oral daily, 2TSPA 2.2 mg/kg/day i.v.) was 5. The “Number of live animals remaining” value ([4]; 6 months after cessation of treatment, 2AY/2NY 0.5 ml oral daily, 2TSPA 2.2 mg/kg/day i.v.) was 0, the “mean weight of mice and standard deviation” value [4, 5] was “all animals dead” and the “mean weight of tumor nodules and standard deviation” value [4, 5] was “all animals dead”. The “mean weight of mice and standard deviation” value [2, 6] was “all animals dead” and the “mean weight of tumor nodules and standard deviation” value [2, 6] was “all animals dead”.
